Source: US20030212034A1, “Method of treatment of obesity and paralyzed muscle and ergogenic aids” (priority 2002, published 2003)

Tests used:
Type in all cases: in vivo, rat
[1] = tested on: acetyl-CoA carboxylase (ACC); experiment: ACC activity and citrate dependence in denervated and contralateral muscles after acute AICAR injection; conditions: for ACC activity vs saline, several citrate concentrations / ACC activity at 0.2 mM citrate vs saline-treated contralateral innervated soleus: acute AICAR 1 mg/g; for ACC activity vs saline, several citrate concentrations: FIG. 10; for ACC activity at 0.2 mM citrate vs saline-treated contralateral innervated soleus: FIG. 9
Source text: (§1) Rats were anesthetized with ether and the sciatic nerve of the right hindlimb was severed. The left hindlimb was sham operated to serve as a control. Both skin wounds were closed with a metal clips. The rats used for the acute study were also implanted with a jugular catheter which was exteriorized on the back of the neck at the time of denervation for rapid administration of anesthesia.
(§2) Rats were denervated between 8:30 a.m. and 10:30 a.m. and were then given 25 g of food. Rats were handled twice during the day to accustom them to being handled. The rats were given a single subcutaneous injection 24 hours. after surgery of either AICAR (1 mg/g body weight) in sterile 0.9% NaCl or with just 0.9% NaCl, and were subsequently anesthetized intravenously. Soleus and gastrocnemius muscles from both sham and denervated sides were extracted and quick frozen in liquid nitrogen for analysis. AMPK activity and acetyl-Co A carboxylase (ACC) activity were determined as previously described. Winder W W & Hardie D G, Am J. Physiol 270 (Endocrinol Metab 33): E299-E304, 1996. Because this analysis is done on homogenates prepared by ammonium sulfate precipitation, only those effects on AMPK activity modified by phosphorylation are measured. […] Because ACC is a target for phosphorylation by AMPK, and because ACC activity has been reported to decrease in response to phosphorylation by AMPK, ACC activity is measured to give an indication of the in vivo actions of AMPK.
Referring to FIG. 10, Citrate dependence of acetyl-CoA carboxylase (ACC) in denervated and contralateral innervated gastrocnemius muscles from rats treated with AICAR (1 mg AICAR in 0.9% NaCl/1 g body weight) or saline (0.9% NaCl) is illustrated. SE values were determined but are not shown (n=5).Curves were fitted to data by using the Hill equation and Grafit software (Sigma Chemical, St. Louis, Mo.). FIG. 10 graphs the specific activity of ACC in saline-treated and AICAR-treated gastrocnemius muscles at several different citrate concentrations.

[2] = Food intake, body weight and organ weights after 4 weeks of daily AICAR injection
Method: To determine the effect of chronic injection of AICAR on muscle enyzme activities or expression and on muscle GLUT4, rats were injected subcutaneously (between 8 and 10 a.m.) with AICAR (1 mg/g) or saline vehicle daily for 28±1 days in succession. Beginning with the first injection, controls were pair fed with AICAR-injected rats. Rats were anesthetized by intraperitoneal injection of pentobarbital sodium 22-25 hours after the last AICAR injection and the white and red regions of the quadriceps and the soleus muscles were removed and frozen as described above. Muscles were kept frozen at −70° C. until analyzed. Liver, heart, kidney, and fat pads were weighed.

[3] = ZMP concentration in muscle after AICAR injection; conditions: for ZMP concentration: one hour after AICAR injection in rats given daily injections for 4 weeks
Method: Resuspended ammonium sulfate precipitates of tissue homogenates were analyzed for AMPK activity and acetyl-CoA carboxylase activity as described previously. Li, B., et al. J. Biol. Chem. 274:17534-17540, 1999; Winder, W. W., & D. G. Hardie Am. J. Physiol. 270:E299-E304, 1996. […] ACC activity at 0.2 mM citrate provides some indication of the in vivo activity of AMPK, since ACC is a target for phosphorylation of AMPK. ACC activity has previously been reported to decrease in response to phosphorylation by AMPK. Winder, W. W., & D. G. Hardie Am. J. Physiol. 270:E299-E304, 1996. The acute experiment was also repeated on rats treated with AICAR or saline for 4 weeks to see if the responses of AMPK and ACC to AICAR persisted for the entire treatment period. In both experiments ATP and CP were measured on neutralized perchloric acid extracts of muscle.
After obtaining results on blunted acute response to an AICAR injection on AMPK in chronically treated rats, an additional experiment was done to determine if intermittent treatment of rats with AICAR would influence the extent of the increase in citrate synthase. This experiment was also of shorter duration to minimize down regulation that appeared to occur with prolonged treatment. Rats were injected for three days (1 mg/g) followed by two days of no treatment. They were then injected for five days, followed by another two days with no treatment and then for three additional days before killing 20-24 hours following the last injection. Rats were anesthetized and tissues were collected and frozen as before. Analytical methods. Muscles from rats killed 1 h after injection of AICAR or saline were analyzed for AMPK, acetyl-CoA carboxylase (ACC) at 0.2 mM citrate, ATP and CP and ZMP. Li, B., et al. J. Biol. Chem. 274:17534-17540, 1999; Winder, W. W., & D. G. Hardie Am. J. Physiol. 270:E299-E304, 1996; Heinz, F., & H. Weisser. Creatine phosphate. In: Methods of Enzymatic Analysis, edited by H. U. Bergmeyer. New York: Academic, 1983, p. 507-514.

[4] = tested on: AMP-activated protein kinase (AMPK); experiment: AMPK activity in denervated and contralateral muscles after acute AICAR injection; conditions: acute AICAR 1 mg/g
Source text: as §1, §2

[5] = AICAR 1 mg/g s.c. daily for four weeks

NC(=O)c1ncn([C@@H]2O[C@H](CO)[C@@H](O)[C@H]2O)c1N [AICAR, 5-aminoimidazole-4-carboxamide-1-β-D-ribofuranoside]
ACC activity vs saline, several citrate concentrations ([1]; contralateral innervated gastrocnemius): significantly decrease ACC activity
ACC activity at 0.2 mM citrate vs saline-treated contralateral innervated soleus ([1]; contralateral soleus): significantly (P<0.01) decreased
ACC citrate activation constant (Ka) ([1]; denervated gastrocnemius, acute AICAR 1 mg/g s.c., saline-treated denervated 3.6±0.3): 13.2±1.1
ACC maximal velocity (Vmax) as a function of citrate concentration ([1]; denervated gastrocnemius, acute AICAR 1 mg/g s.c., saline-treated denervated 36.7±5): 24.7±1.9
ACC activity vs saline, several citrate concentrations ([1]; denervated gastrocnemius): significantly decrease ACC activity
ACC activity at 0.2 mM citrate vs saline-treated contralateral innervated soleus ([1]; denervated soleus): significantly (P<0.01) decreased
Epididymal Fat Pad weight [2, 5]: 1.21 ± 0.10 g
Heart weight [2, 5]: 0.80 ± 0.02 g
Kidney weight [2, 5]: 0.99 ± 0.02 g
Liver weight [2, 5]: 16.0 ± 0.50 g
Retroperitoneal Fat Pad weight [2, 5]: 0.90 ± 0.08 g
Body Weight ([2]; AICAR 1 mg/g s.c. daily for four weeks, pair-fed controls): 254 ± 5 g
food intake and body weight vs saline injected rats ([2]; AICAR for 4 weeks, FIG. 1): No statistically significant differences
time course of ZMP in muscle after subcutaneous injection of AICAR ([3]; increased 15 minutes following injection): remains elevated for at least two hours
ZMP concentration ([3]; red quadriceps): 0.94 ± 0.08 µmol/g
ZMP concentration ([3]; soleus muscle): 1.15 ± 0.07 µmol/g
ZMP concentration ([3]; white quadriceps): 0.42 ± 0.04 µmol/g
AMPK activity vs saline-treated contralateral innervated muscles ([4]; contralateral innervated gastrocnemius, FIG. 7): significantly (P<0.05) elevated
AMPK activity vs saline-treated contralateral innervated muscles ([4]; contralateral innervated soleus, FIG. 8): significantly (P<0.05) elevated
AMPK activity vs saline-treated contralateral innervated muscles ([4]; denervated gastrocnemius, FIG. 7): significantly (P<0.05) elevated
